Data reported in ChEMBL document CHEMBL2384983, “A cyclodextrin-capped histone deacetylase inhibitor” (Bioorg Med Chem Lett, 2013).

How the values were obtained:
Histone deacetylase 8 = target: T1, Histone deacetylase 8 (Homo sapiens, UniProt Q9BY41); assay: Inhibition of HDAC8 (unknown origin)
T1 sequence (Q9BY41 whole entry): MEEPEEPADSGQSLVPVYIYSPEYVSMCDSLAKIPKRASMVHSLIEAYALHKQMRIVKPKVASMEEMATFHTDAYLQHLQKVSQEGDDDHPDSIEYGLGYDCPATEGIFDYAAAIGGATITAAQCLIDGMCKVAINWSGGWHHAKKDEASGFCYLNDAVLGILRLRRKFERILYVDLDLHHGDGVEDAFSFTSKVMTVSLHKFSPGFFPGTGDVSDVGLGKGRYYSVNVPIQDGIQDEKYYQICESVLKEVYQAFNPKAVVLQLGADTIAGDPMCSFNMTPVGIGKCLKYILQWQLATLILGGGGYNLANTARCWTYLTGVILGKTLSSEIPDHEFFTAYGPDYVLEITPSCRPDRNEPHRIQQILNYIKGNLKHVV

[1] = target: T2, Protein deacetylase HDAC6 (Homo sapiens, UniProt Q9UBN7); assay: Inhibition of HDAC6 (unknown origin)
T2 sequence (Q9UBN7 whole entry): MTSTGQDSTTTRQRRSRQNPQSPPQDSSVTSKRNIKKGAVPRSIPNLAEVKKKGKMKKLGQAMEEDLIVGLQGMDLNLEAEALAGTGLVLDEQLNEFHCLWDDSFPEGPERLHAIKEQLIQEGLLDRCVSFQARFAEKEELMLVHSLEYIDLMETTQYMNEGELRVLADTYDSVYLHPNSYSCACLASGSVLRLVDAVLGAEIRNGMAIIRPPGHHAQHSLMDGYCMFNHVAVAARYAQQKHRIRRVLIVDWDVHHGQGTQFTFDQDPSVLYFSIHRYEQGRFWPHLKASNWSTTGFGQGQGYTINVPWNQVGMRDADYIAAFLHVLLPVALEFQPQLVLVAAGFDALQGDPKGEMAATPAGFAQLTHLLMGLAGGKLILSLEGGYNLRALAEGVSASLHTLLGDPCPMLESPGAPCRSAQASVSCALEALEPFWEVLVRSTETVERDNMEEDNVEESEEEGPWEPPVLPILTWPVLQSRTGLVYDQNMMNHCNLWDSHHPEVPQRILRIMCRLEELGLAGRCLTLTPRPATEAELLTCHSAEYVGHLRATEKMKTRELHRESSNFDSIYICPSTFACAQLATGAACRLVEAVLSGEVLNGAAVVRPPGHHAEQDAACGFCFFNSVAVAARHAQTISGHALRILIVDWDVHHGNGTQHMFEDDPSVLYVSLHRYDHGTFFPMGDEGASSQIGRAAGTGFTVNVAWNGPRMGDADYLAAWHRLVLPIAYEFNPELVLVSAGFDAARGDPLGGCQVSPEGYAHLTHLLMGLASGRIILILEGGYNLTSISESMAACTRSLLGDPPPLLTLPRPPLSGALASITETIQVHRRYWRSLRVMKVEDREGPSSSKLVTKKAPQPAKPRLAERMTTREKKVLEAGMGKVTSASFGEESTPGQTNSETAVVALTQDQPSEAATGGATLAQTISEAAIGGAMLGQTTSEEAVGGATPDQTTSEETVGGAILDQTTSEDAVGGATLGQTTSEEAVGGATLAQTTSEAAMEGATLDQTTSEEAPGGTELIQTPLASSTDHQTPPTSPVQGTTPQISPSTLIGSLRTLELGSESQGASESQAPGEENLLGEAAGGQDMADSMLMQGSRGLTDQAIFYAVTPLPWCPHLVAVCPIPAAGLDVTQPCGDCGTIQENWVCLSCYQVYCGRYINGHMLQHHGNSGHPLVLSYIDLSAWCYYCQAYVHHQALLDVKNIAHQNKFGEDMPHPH

Histone deacetylase 1 = Histone deacetylase 1 (Homo sapiens, UniProt Q13547); assay: Inhibition of HDAC1 (unknown origin)
Sequence of Histone deacetylase 1 (Q13547 whole entry): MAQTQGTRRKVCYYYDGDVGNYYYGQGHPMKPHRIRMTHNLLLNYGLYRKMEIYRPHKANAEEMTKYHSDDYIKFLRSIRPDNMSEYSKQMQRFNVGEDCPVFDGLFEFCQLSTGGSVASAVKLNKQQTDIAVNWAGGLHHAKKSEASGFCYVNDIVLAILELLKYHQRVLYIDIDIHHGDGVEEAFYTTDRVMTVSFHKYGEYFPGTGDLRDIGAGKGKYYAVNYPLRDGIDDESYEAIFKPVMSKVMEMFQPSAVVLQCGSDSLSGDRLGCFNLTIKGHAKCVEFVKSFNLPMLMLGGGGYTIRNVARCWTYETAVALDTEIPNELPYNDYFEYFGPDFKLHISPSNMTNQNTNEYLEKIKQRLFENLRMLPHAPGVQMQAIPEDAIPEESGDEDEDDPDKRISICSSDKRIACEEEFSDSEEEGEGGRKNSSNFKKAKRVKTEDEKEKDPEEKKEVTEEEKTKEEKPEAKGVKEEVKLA

Histone deacetylase 2 = Histone deacetylase 2 (Homo sapiens, UniProt Q92769); assay: Inhibition of HDAC2 (unknown origin)
Sequence of Histone deacetylase 2 (Q92769 whole entry): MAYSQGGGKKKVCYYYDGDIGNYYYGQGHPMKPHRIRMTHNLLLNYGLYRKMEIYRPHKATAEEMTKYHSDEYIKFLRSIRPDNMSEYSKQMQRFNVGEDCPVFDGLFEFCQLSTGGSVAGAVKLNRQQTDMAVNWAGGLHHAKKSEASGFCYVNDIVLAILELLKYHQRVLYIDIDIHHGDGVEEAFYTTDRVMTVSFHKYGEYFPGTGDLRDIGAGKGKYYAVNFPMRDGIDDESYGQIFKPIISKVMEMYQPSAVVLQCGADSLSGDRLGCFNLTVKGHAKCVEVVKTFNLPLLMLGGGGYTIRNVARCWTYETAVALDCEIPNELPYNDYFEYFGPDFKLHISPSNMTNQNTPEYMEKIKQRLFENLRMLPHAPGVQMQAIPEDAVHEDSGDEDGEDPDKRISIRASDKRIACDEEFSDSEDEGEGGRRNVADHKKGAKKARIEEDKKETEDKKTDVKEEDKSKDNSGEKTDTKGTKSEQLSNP

Histone deacetylase 3 = Histone deacetylase 3 (Homo sapiens, UniProt O15379); assay: Inhibition of HDAC3 (unknown origin)
Sequence of Histone deacetylase 3 (O15379 whole entry): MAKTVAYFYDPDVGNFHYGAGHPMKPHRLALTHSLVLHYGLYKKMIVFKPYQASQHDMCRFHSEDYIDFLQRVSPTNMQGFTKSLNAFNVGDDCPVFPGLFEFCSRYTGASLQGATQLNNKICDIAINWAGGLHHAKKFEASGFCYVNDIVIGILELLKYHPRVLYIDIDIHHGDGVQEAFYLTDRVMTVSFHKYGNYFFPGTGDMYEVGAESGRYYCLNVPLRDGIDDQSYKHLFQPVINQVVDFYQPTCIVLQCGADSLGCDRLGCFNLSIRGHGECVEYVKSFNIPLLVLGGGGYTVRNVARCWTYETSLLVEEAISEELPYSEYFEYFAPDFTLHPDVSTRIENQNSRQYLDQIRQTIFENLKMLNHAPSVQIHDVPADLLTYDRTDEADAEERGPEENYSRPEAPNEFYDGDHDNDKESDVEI

IC50 (Histone deacetylase 8): 6000 nM
IC50 [1]: 120 nM
IC50 (Histone deacetylase 1): 630 nM
IC50 (Histone deacetylase 2): 1200 nM
IC50 (Histone deacetylase 3): 1600 nM
Compound: O=C(CCCCCCC(=O)NC[C@H]1O[C@@H]2O[C@H]3[C@H](O)[C@@H](O)[C@@H](O[C@H]4[C@H](O)[C@@H](O)[C@@H](O[C@H]5[C@H](O)[C@@H](O)[C@@H](O[C@H]6[C@H](O)[C@@H](O)[C@@H](O[C@H]7[C@H](O)[C@@H](O)[C@@H](O[C@H]8[C@H](O)[C@@H](O)[C@@H](O[C@H]1[C@H](O)[C@H]2O)O[C@@H]8CO)O[C@@H]7CO)O[C@@H]6CO)O[C@@H]5CO)O[C@@H]4CO)O[C@@H]3CO)NO
